Test results as given in ChEMBL document CHEMBL1201862, “PubChem BioAssay data set” (2004).
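96-well plates; 48 h exposure; 5 concentrations. Endpoints by linear interpolation between flanking doses. Not reached: highest tested concentration assigned. At the GI50, growth is halved.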 Activity calls are given as the source filed them. Rule as the data show it: active = GI50 up to about 1.1 µM and inactive = higher.

Legend:
Experiment in all cases: DTP human tumour cell line panel, 48 h
OVCAR-8 = system: OVCAR-8
Hs-578T = system: Hs-578T
K562 = system: K562
HOP-62 = system: HOP-62
SR = system: SR
UACC-62 = system: UACC-62
NCI-H23 = system: NCI-H23
Malme-3M = system: Malme-3M
RPMI-8226 = system: RPMI-8226
DU-145 = system: DU-145
TK-10 = system: TK-10
KM12 = system: KM12
HL-60 = system: HL-60
SF-539 = system: SF-539
HCC 2998 = system: HCC 2998
NCI-H226 = system: NCI-H226
MOLT-4 = system: MOLT-4
MDA-MB-435 = system: MDA-MB-435
CCRF-CEM = system: CCRF-CEM
SF-268 = system: SF-268

CN(C)CCNC(=O)c1ccc(Cl)c2cc3ccccc3nc12
GI50 (OVCAR-8): 0.481 µM (active) | GI50 (Hs-578T): 0.759 µM (active) | GI50 (K562): 0.553 µM (active) | GI50 (HOP-62): 1 µM (active) | GI50 (SR): 0.339 µM (active) | GI50 (UACC-62): 0.652 µM (active) | GI50 (NCI-H23): 0.632 µM (active) | GI50 (Malme-3M): 0.731 µM (active) | GI50 (RPMI-8226): 0.463 µM (active) | GI50 (DU-145): 0.991 µM (active) | GI50 (TK-10): 1.07 µM (active) | GI50 (KM12): 0.807 µM (active) | GI50 (HL-60): 0.608 µM (active) | GI50 (SF-539): 0.946 µM (active) | GI50 (HCC 2998): 1.16 µM (inactive) | GI50 (NCI-H226): 0.918 µM (active) | GI50 (MOLT-4): 0.265 µM (active) | GI50 (MDA-MB-435): 0.951 µM (active) | GI50 (CCRF-CEM): 0.394 µM (active) | GI50 (SF-268): 0.962 µM (active)

CC1(C)CC2(C)ON=C(c3ccccc3)N2c2ccccc2N1 (stereo not given)
GI50 (OVCAR-8): 27.7 µM (inactive) | GI50 (Hs-578T): 18.8 µM (inactive) | GI50 (K562): 19.8 µM (inactive) | GI50 (HOP-62): 17.7 µM (inactive) | GI50 (SR): 34.5 µM (inactive) | GI50 (UACC-62): 14.1 µM (inactive) | GI50 (NCI-H23): 25 µM (inactive) | GI50 (Malme-3M): 20.5 µM (inactive) | GI50 (RPMI-8226): 29 µM (inactive) | GI50 (DU-145): 33.1 µM (inactive) | GI50 (TK-10): 39.4 µM (inactive) | GI50 (KM12): 30.6 µM (inactive) | GI50 (HL-60): 19.7 µM (inactive) | GI50 (SF-539): 19.5 µM (inactive) | GI50 (HCC 2998): 35.2 µM (inactive) | GI50 (NCI-H226): 17.3 µM (inactive) | GI50 (MOLT-4): 21.6 µM (inactive) | GI50 (MDA-MB-435): 19.8 µM (inactive) | GI50 (CCRF-CEM): 32.7 µM (inactive) | GI50 (SF-268): 22.1 µM (inactive)

COC1=CC(=O)c2c(O)c3c(c(O)c2C1=O)C=C(C)OC3O (stereo not given)
GI50 (OVCAR-8): 0.849 µM (active) | GI50 (Hs-578T): 2.64 µM (inactive) | GI50 (K562): 1.44 µM (inactive) | GI50 (HOP-62): 2.88 µM (inactive) | GI50 (SR): 1.84 µM (inactive) | GI50 (UACC-62): 0.859 µM (active) | GI50 (NCI-H23): 0.838 µM (active) | GI50 (Malme-3M): 0.277 µM (active) | GI50 (RPMI-8226): 1.5 µM (inactive) | GI50 (DU-145): 1.01 µM (active) | GI50 (TK-10): 2.89 µM (inactive) | GI50 (KM12): 2.21 µM (inactive) | GI50 (HL-60): 0.731 µM (active) | GI50 (SF-539): 1.58 µM (inactive) | GI50 (HCC 2998): 1.56 µM (inactive) | GI50 (NCI-H226): 2.9 µM (inactive) | GI50 (MOLT-4): 1.58 µM (inactive) | GI50 (MDA-MB-435): 1.25 µM (inactive) | GI50 (CCRF-CEM): 1.64 µM (inactive) | GI50 (SF-268): 2.18 µM (inactive)

Cc1ccc(C(=O)/C=C2\Nc3cccnc3NC2=O)cc1
GI50 (OVCAR-8): 51.2 µM (inactive) | GI50 (Hs-578T): 37.8 µM (inactive) | GI50 (K562): > 100 µM (inactive) | GI50 (HOP-62): 33.6 µM (inactive) | GI50 (SR): > 100 µM (inactive) | GI50 (UACC-62): > 100 µM (inactive) | GI50 (NCI-H23): > 100 µM (inactive) | GI50 (Malme-3M): 95.9 µM (inactive) | GI50 (RPMI-8226): > 100 µM (inactive) | GI50 (DU-145): > 100 µM (inactive) | GI50 (TK-10): > 100 µM (inactive) | GI50 (KM12): > 100 µM (inactive) | GI50 (HL-60): > 100 µM (inactive) | GI50 (SF-539): 60.4 µM (inactive) | GI50 (HCC 2998): > 100 µM (inactive) | GI50 (NCI-H226): > 100 µM (inactive) | GI50 (MOLT-4): > 100 µM (inactive) | GI50 (MDA-MB-435): > 100 µM (inactive) | GI50 (CCRF-CEM): > 100 µM (inactive) | GI50 (SF-268): 55.8 µM (inactive)

[N-]=[N+]=Nc1cccc(-c2nnc(Cl)cc2O)c1
GI50 (OVCAR-8): > 100 µM (inactive) | GI50 (Hs-578T): > 100 µM (inactive) | GI50 (K562): > 100 µM (inactive) | GI50 (HOP-62): > 100 µM (inactive) | GI50 (SR): > 100 µM (inactive) | GI50 (UACC-62): > 100 µM (inactive) | GI50 (NCI-H23): > 100 µM (inactive) | GI50 (Malme-3M): > 100 µM (inactive) | GI50 (RPMI-8226): > 100 µM (inactive) | GI50 (DU-145): > 100 µM (inactive) | GI50 (TK-10): > 100 µM (inactive) | GI50 (KM12): > 100 µM (inactive) | GI50 (HL-60): > 100 µM (inactive) | GI50 (SF-539): > 100 µM (inactive) | GI50 (HCC 2998): > 100 µM (inactive) | GI50 (NCI-H226): > 100 µM (inactive) | GI50 (MOLT-4): > 100 µM (inactive) | GI50 (MDA-MB-435): > 100 µM (inactive) | GI50 (CCRF-CEM): > 100 µM (inactive) | GI50 (SF-268): > 100 µM (inactive)

Clc1ccc(Cc2nc3cc(Cl)ccc3o2)cc1
GI50 (OVCAR-8): 32.3 µM (inactive) | GI50 (Hs-578T): 40.8 µM (inactive) | GI50 (K562): 46.1 µM (inactive) | GI50 (HOP-62): 17.4 µM (inactive) | GI50 (SR): 30.7 µM (inactive) | GI50 (UACC-62): 36.9 µM (inactive) | GI50 (NCI-H23): 33 µM (inactive) | GI50 (Malme-3M): 36.1 µM (inactive) | GI50 (RPMI-8226): 30.9 µM (inactive) | GI50 (DU-145): 60.8 µM (inactive) | GI50 (TK-10): 52 µM (inactive) | GI50 (KM12): 29.7 µM (inactive) | GI50 (HL-60): 30.4 µM (inactive) | GI50 (SF-539): 30.1 µM (inactive) | GI50 (HCC 2998): 21.6 µM (inactive) | GI50 (NCI-H226): 29.1 µM (inactive) | GI50 (MOLT-4): 26.5 µM (inactive) | GI50 (MDA-MB-435): 28.7 µM (inactive) | GI50 (CCRF-CEM): 31.6 µM (inactive) | GI50 (SF-268): 43 µM (inactive)

CCCC(=O)NC(Nc1ccc(S(=O)(=O)Nc2cc(C)on2)cc1)(C(=O)OCC)C(F)(F)F (stereo not given)
GI50 (OVCAR-8): > 100 µM (inactive) | GI50 (Hs-578T): > 100 µM (inactive) | GI50 (K562): > 100 µM (inactive) | GI50 (HOP-62): > 100 µM (inactive) | GI50 (SR): 9.75 µM (inactive) | GI50 (UACC-62): > 100 µM (inactive) | GI50 (NCI-H23): > 100 µM (inactive) | GI50 (Malme-3M): > 100 µM (inactive) | GI50 (RPMI-8226): > 100 µM (inactive) | GI50 (DU-145): > 100 µM (inactive) | GI50 (TK-10): > 100 µM (inactive) | GI50 (KM12): > 100 µM (inactive) | GI50 (HL-60): > 100 µM (inactive) | GI50 (SF-539): > 100 µM (inactive) | GI50 (HCC 2998): > 100 µM (inactive) | GI50 (NCI-H226): > 100 µM (inactive) | GI50 (MOLT-4): 55.3 µM (inactive) | GI50 (MDA-MB-435): > 100 µM (inactive) | GI50 (CCRF-CEM): > 100 µM (inactive) | GI50 (SF-268): > 100 µM (inactive)
